Test results published in PubChem BioAssay (NCI).
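The compound was tested at five concentrations on cells cultured in 96-well plates, with a 48-hour exposure period. TGI marks complete inhibition of growth.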

Columns and labels:
Assay in all cases: NCI tumour cell line growth inhibition, 48 h
K-562 leukemia = system: K-562 leukemia
HOP-92 NSCLC = system: HOP-92 NSCLC
SK-MEL-2 melanoma = system: SK-MEL-2 melanoma
CAKI-1 renal = system: CAKI-1 renal
SN12K1 renal = system: SN12K1 renal
HOP-62 NSCLC = system: HOP-62 NSCLC
UO-31 renal = system: UO-31 renal
EKVX NSCLC = system: EKVX NSCLC
UACC-257 melanoma = system: UACC-257 melanoma
RPMI-8226 leukemia = system: RPMI-8226 leukemia
P388 leukemia = system: P388 leukemia
SW-620 colon = system: SW-620 colon
DMS 273 small cell lung = system: DMS 273 small cell lung
HCT-116 colon = system: HCT-116 colon
HCT-15 colon = system: HCT-15 colon
CCRF-CEM leukemia = system: CCRF-CEM leukemia
MOLT-4 leukemia = system: MOLT-4 leukemia
NCI-H522 lung = system: NCI-H522 lung
KM20L2 colon = system: KM20L2 colon
MCF7 breast = system: MCF7 breast
A498 renal = system: A498 renal
SNB-75 CNS = system: SNB-75 CNS
DMS 114 small cell lung = system: DMS 114 small cell lung
SF-539 CNS = system: SF-539 CNS
HT29 colon = system: HT29 colon
SN12C renal = system: SN12C renal
RXF 393 renal = system: RXF 393 renal
XF 498 CNS = system: XF 498 CNS
LOX IMVI melanoma = system: LOX IMVI melanoma
SNB-19 CNS = system: SNB-19 CNS
SNB-78 CNS = system: SNB-78 CNS
IGROV1 ovarian = system: IGROV1 ovarian
SF-295 CNS = system: SF-295 CNS
P388/ADR leukemia = system: P388/ADR leukemia
UACC-62 melanoma = system: UACC-62 melanoma
OVCAR-8 ovarian = system: OVCAR-8 ovarian
DLD-1 colon = system: DLD-1 colon
HOP-18 NSCLC = system: HOP-18 NSCLC
A549 NSCLC = system: A549 NSCLC
HCC-2998 colon = system: HCC-2998 colon
OVCAR-3 ovarian = system: OVCAR-3 ovarian
NCI-H226 lung = system: NCI-H226 lung
KM12 colon = system: KM12 colon
M19-MEL melanoma = system: M19-MEL melanoma
HL-60(TB) leukemia = system: HL-60(TB) leukemia
SK-MEL-5 melanoma = system: SK-MEL-5 melanoma
MALME-3M melanoma = system: MALME-3M melanoma
OVCAR-4 ovarian = system: OVCAR-4 ovarian
NCI-H23 lung = system: NCI-H23 lung
COLO 205 colon = system: COLO 205 colon
SK-MEL-28 melanoma = system: SK-MEL-28 melanoma
U251 CNS = system: U251 CNS
NCI/ADR-RES ovarian = system: NCI/ADR-RES ovarian
SF-268 CNS = system: SF-268 CNS
NCI-H460 lung = system: NCI-H460 lung
OVCAR-5 ovarian = system: OVCAR-5 ovarian
SK-OV-3 ovarian = system: SK-OV-3 ovarian

CC[C@@]1(O)C[C@H](OC2CC(N(C)C)C(O)C(C)O2)c2c(cc3c(c2O)C(=O)c2c(O)ccc(O)c2C3=O)[C@H]1C(=O)OC (some centres not stated)
TGI (K-562 leukemia): 472 nM
TGI (HOP-92 NSCLC): 1350 nM
TGI (SK-MEL-2 melanoma): 354 nM
TGI (CAKI-1 renal): 250 nM
TGI (SN12K1 renal): 256 nM
TGI (HOP-62 NSCLC): 672 nM
TGI (UO-31 renal): 1000 nM
TGI (EKVX NSCLC): 526 nM
TGI (UACC-257 melanoma): 317 nM
TGI (RPMI-8226 leukemia): 388 nM
TGI (P388 leukemia): 31.7 nM
TGI (SW-620 colon): 662 nM
TGI (DMS 273 small cell lung): 406 nM
TGI (HCT-116 colon): 829 nM
TGI (HCT-15 colon): 976 nM
TGI (CCRF-CEM leukemia): 603 nM
TGI (MOLT-4 leukemia): 192 nM
TGI (NCI-H522 lung): 501 nM
TGI (KM20L2 colon): 969 nM
TGI (MCF7 breast): 996 nM
TGI (A498 renal): 239 nM
TGI (SNB-75 CNS): 354 nM
TGI (DMS 114 small cell lung): 489 nM
TGI (SF-539 CNS): 410 nM
TGI (HT29 colon): 559 nM
TGI (SN12C renal): 1470 nM
TGI (RXF 393 renal): 258 nM
TGI (XF 498 CNS): 463 nM
TGI (LOX IMVI melanoma): 772 nM
TGI (SNB-19 CNS): 2910 nM
TGI (SNB-78 CNS): 1340 nM
TGI (IGROV1 ovarian): 1350 nM
TGI (SF-295 CNS): 389 nM
TGI (P388/ADR leukemia): 56.1 nM
TGI (UACC-62 melanoma): 252 nM
TGI (OVCAR-8 ovarian): 643 nM
TGI (DLD-1 colon): 891 nM
TGI (HOP-18 NSCLC): 1300 nM
TGI (A549 NSCLC): 1360 nM
TGI (HCC-2998 colon): 579 nM
TGI (OVCAR-3 ovarian): 924 nM
TGI (NCI-H226 lung): 455 nM
TGI (KM12 colon): 1000 nM
TGI (M19-MEL melanoma): 288 nM
TGI (HL-60(TB) leukemia): 218 nM
TGI (SK-MEL-5 melanoma): 461 nM
TGI (MALME-3M melanoma): 304 nM
TGI (OVCAR-4 ovarian): 91.8 nM
TGI (NCI-H23 lung): 599 nM
TGI (COLO 205 colon): 359 nM
TGI (SK-MEL-28 melanoma): 462 nM
TGI (U251 CNS): 1230 nM
TGI (NCI/ADR-RES ovarian): 619 nM
TGI (SF-268 CNS): 680 nM
TGI (NCI-H460 lung): 120 nM
TGI (OVCAR-5 ovarian): 836 nM
TGI (SK-OV-3 ovarian): 2370 nM

CCCCCCSc1nc(N)nc2nc[nH]c12
TGI (K-562 leukemia): > 100000 nM
TGI (HOP-92 NSCLC): 72100 nM
TGI (SK-MEL-2 melanoma): > 100000 nM
TGI (SN12K1 renal): > 100000 nM
TGI (HOP-62 NSCLC): > 100000 nM
TGI (UO-31 renal): 68600 nM
TGI (EKVX NSCLC): > 100000 nM
TGI (UACC-257 melanoma): > 100000 nM
TGI (RPMI-8226 leukemia): > 100000 nM
TGI (P388 leukemia): > 68000 nM
TGI (SW-620 colon): > 100000 nM
TGI (DMS 273 small cell lung): > 100000 nM
TGI (HCT-116 colon): > 100000 nM
TGI (HCT-15 colon): > 100000 nM
TGI (CCRF-CEM leukemia): > 100000 nM
TGI (MOLT-4 leukemia): > 100000 nM
TGI (NCI-H522 lung): 40900 nM
TGI (KM20L2 colon): > 100000 nM
TGI (MCF7 breast): > 100000 nM
TGI (A498 renal): > 100000 nM
TGI (SNB-75 CNS): 71700 nM
TGI (SF-539 CNS): > 100000 nM
TGI (HT29 colon): > 100000 nM
TGI (SN12C renal): > 100000 nM
TGI (RXF 393 renal): > 93000 nM
TGI (XF 498 CNS): > 89600 nM
TGI (LOX IMVI melanoma): > 100000 nM
TGI (SNB-19 CNS): > 100000 nM
TGI (SNB-78 CNS): > 100000 nM
TGI (IGROV1 ovarian): > 100000 nM
TGI (SF-295 CNS): > 100000 nM
TGI (P388/ADR leukemia): 44400 nM
TGI (UACC-62 melanoma): > 100000 nM
TGI (OVCAR-8 ovarian): > 100000 nM
TGI (DLD-1 colon): > 100000 nM
TGI (HOP-18 NSCLC): > 72600 nM
TGI (A549 NSCLC): > 100000 nM
TGI (HCC-2998 colon): > 100000 nM
TGI (OVCAR-3 ovarian): > 100000 nM
TGI (NCI-H226 lung): > 85400 nM
TGI (KM12 colon): > 100000 nM
TGI (M19-MEL melanoma): > 100000 nM
TGI (HL-60(TB) leukemia): 60400 nM
TGI (SK-MEL-5 melanoma): > 62500 nM
TGI (MALME-3M melanoma): > 100000 nM
TGI (OVCAR-4 ovarian): > 100000 nM
TGI (NCI-H23 lung): > 100000 nM
TGI (COLO 205 colon): > 100000 nM
TGI (SK-MEL-28 melanoma): > 100000 nM
TGI (U251 CNS): > 100000 nM
TGI (NCI/ADR-RES ovarian): > 100000 nM
TGI (SF-268 CNS): > 100000 nM
TGI (NCI-H460 lung): > 100000 nM
TGI (OVCAR-5 ovarian): > 100000 nM
TGI (SK-OV-3 ovarian): 80800 nM
